Data: the supplement of paper PMC10307832

Key:
Assay in all cases: relative viability (nuclei count vs DMSO), 5 days (fraction); higher = more cells survive
BEN = system: BEN
Procedure, shortened: (§1)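 Five library-drug doses in √10 steps were combined with a fixed anchor-drug dose, or a single drug was given alone, by pin tool to lung cancer cell lines in 1536-well plates the day after seeding. Nuclei were stained and counted after 5 days. Relative viability is the nuclei count in treated wells over that in vehicle wells, taken as the median of duplicate plates.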

ChaGo-K-1 = system: ChaGo-K-1
Procedure, shortened: as §1

HCC-78 = system: HCC-78
Procedure, shortened: as §1

LC-2-ad = system: LC-2-ad
Procedure, shortened: as §1

LCLC-97TM1 = system: LCLC-97TM1
Procedure, shortened: as §1

LK-2 = system: LK-2
Procedure, shortened: as §1

LU99A = system: LU99A
Procedure, shortened: as §1

LXF-289 = system: LXF-289
Procedure, shortened: as §1

NCI-H1355 = system: NCI-H1355
Procedure, shortened: as §1

NCI-H1651 = system: NCI-H1651
Procedure, shortened: as §1

NCI-H1666 = system: NCI-H1666
Procedure, shortened: as §1

NCI-H1944 = system: NCI-H1944
Procedure, shortened: as §1

NCI-H1975 = system: NCI-H1975
Procedure, shortened: as §1

NCI-H2087 = system: NCI-H2087
Procedure, shortened: as §1

NCI-H2342 = system: NCI-H2342
Procedure, shortened: as §1

NCI-H358 = system: NCI-H358
Procedure, shortened: as §1

NCI-H596 = system: NCI-H596
Procedure, shortened: as §1

NCI-H650 = system: NCI-H650
Procedure, shortened: as §1

NCI-H661 = system: NCI-H661
Procedure, shortened: as §1

NCI-H838 = system: NCI-H838
Procedure, shortened: as §1

PC-3 [JPC-3] = system: PC-3 [JPC-3]
Procedure, shortened: as §1

SK-MES-1 = system: SK-MES-1
Procedure, shortened: as §1

## CC(=O)O[C@@]12CO[C@@H]1C[C@H](O)[C@@]1(C)C(=O)[C@H](O)C3=C(C)[C@@H](OC(=O)[C@H](O)[C@@H](NC(=O)OC(C)(C)C)c4ccccc4)C[C@@](O)([C@@H](OC(=O)c4ccccc4)[C@H]21)C3(C)C [Docetaxel] + Nc1ncn([C@H]2C[C@H](O)[C@@H](CO)O2)c(=O)n1 [Decitabine] (partner 2 µM)
BEN; first compound 0.0002 µM
  relative viability: 0.522
BEN; first compound 0.000632 µM
  relative viability: 0.621
BEN; first compound 0.002 µM
  relative viability: 0.426
BEN; first compound 0.006325 µM
  relative viability: 0.417
BEN; first compound 0.02 µM
  relative viability: 0.325
ChaGo-K-1; first compound 0.0002 µM
  relative viability: 0.461
ChaGo-K-1; first compound 0.000632 µM
  relative viability: 0.548
ChaGo-K-1; first compound 0.002 µM
  relative viability: 0.381
ChaGo-K-1; first compound 0.006325 µM
  relative viability: 0.276
ChaGo-K-1; first compound 0.02 µM
  relative viability: 0.21
HCC-78; first compound 0.0002 µM
  relative viability: 0.627
HCC-78; first compound 0.000632 µM
  relative viability: 0.654
HCC-78; first compound 0.002 µM
  relative viability: 0.458
HCC-78; first compound 0.006325 µM
  relative viability: 0.511
HCC-78; first compound 0.02 µM
  relative viability: 0.353
LC-2-ad; first compound 0.0002 µM
  relative viability: 0.769
LC-2-ad; first compound 0.000632 µM
  relative viability: 0.714
LC-2-ad; first compound 0.002 µM
  relative viability: 0.465
LC-2-ad; first compound 0.006325 µM
  relative viability: 0.323
LC-2-ad; first compound 0.02 µM
  relative viability: 0.272
LCLC-97TM1; first compound 0.0002 µM
  relative viability: 0.208
LCLC-97TM1; first compound 0.000632 µM
  relative viability: 0.189
LCLC-97TM1; first compound 0.002 µM
  relative viability: 0.133
LCLC-97TM1; first compound 0.006325 µM
  relative viability: 0.112
LCLC-97TM1; first compound 0.02 µM
  relative viability: 0.0836
LK-2; first compound 0.0002 µM
  relative viability: 0.348
LK-2; first compound 0.000632 µM
  relative viability: 0.224
LK-2; first compound 0.002 µM
  relative viability: 0.115
LK-2; first compound 0.006325 µM
  relative viability: 0.126
LK-2; first compound 0.02 µM
  relative viability: 0.13
LU99A; first compound 0.0002 µM
  relative viability: 0.87
LU99A; first compound 0.000632 µM
  relative viability: 0.872
LU99A; first compound 0.002 µM
  relative viability: 0.466
LU99A; first compound 0.006325 µM
  relative viability: 0.363
LU99A; first compound 0.02 µM
  relative viability: 0.204
LXF-289; first compound 0.0002 µM
  relative viability: 0.383
LXF-289; first compound 0.000632 µM
  relative viability: 0.382
LXF-289; first compound 0.002 µM
  relative viability: 0.25
LXF-289; first compound 0.006325 µM
  relative viability: 0.14
LXF-289; first compound 0.02 µM
  relative viability: 0.118
NCI-H1355; first compound 0.0002 µM
  relative viability: 0.35
NCI-H1355; first compound 0.000632 µM
  relative viability: 0.365
NCI-H1355; first compound 0.002 µM
  relative viability: 0.286
NCI-H1355; first compound 0.006325 µM
  relative viability: 0.276
NCI-H1355; first compound 0.02 µM
  relative viability: 0.179
NCI-H1651; first compound 0.0002 µM
  relative viability: 0.458
NCI-H1651; first compound 0.000632 µM
  relative viability: 0.547
NCI-H1651; first compound 0.002 µM
  relative viability: 0.299
NCI-H1651; first compound 0.006325 µM
  relative viability: 0.173
NCI-H1666; first compound 0.0002 µM
  relative viability: 0.594
NCI-H1666; first compound 0.000632 µM
  relative viability: 0.64
NCI-H1666; first compound 0.002 µM
  relative viability: 0.504
NCI-H1666; first compound 0.006325 µM
  relative viability: 0.477
NCI-H1666; first compound 0.02 µM
  relative viability: 0.425
NCI-H1944; first compound 0.0002 µM
  relative viability: 0.45
NCI-H1944; first compound 0.000632 µM
  relative viability: 0.461
NCI-H1944; first compound 0.002 µM
  relative viability: 0.406
NCI-H1944; first compound 0.006325 µM
  relative viability: 0.291
NCI-H1944; first compound 0.02 µM
  relative viability: 0.139
NCI-H1975; first compound 0.0002 µM
  relative viability: 0.37
NCI-H1975; first compound 0.000632 µM
  relative viability: 0.389
NCI-H1975; first compound 0.002 µM
  relative viability: 0.223
NCI-H1975; first compound 0.006325 µM
  relative viability: 0.177
NCI-H1975; first compound 0.02 µM
  relative viability: 0.122
NCI-H2087; first compound 0.0002 µM
  relative viability: 0.286
NCI-H2087; first compound 0.000632 µM
  relative viability: 0.227
NCI-H2087; first compound 0.002 µM
  relative viability: 0.172
NCI-H2087; first compound 0.006325 µM
  relative viability: 0.0964
NCI-H2087; first compound 0.02 µM
  relative viability: 0.098
NCI-H2342; first compound 0.0002 µM
  relative viability: 0.72
NCI-H2342; first compound 0.000632 µM
  relative viability: 0.72
NCI-H2342; first compound 0.002 µM
  relative viability: 0.583
NCI-H2342; first compound 0.006325 µM
  relative viability: 0.519
NCI-H2342; first compound 0.02 µM
  relative viability: 0.489
NCI-H358; first compound 0.0002 µM
  relative viability: 0.183
NCI-H358; first compound 0.000632 µM
  relative viability: 0.189
NCI-H358; first compound 0.002 µM
  relative viability: 0.18
NCI-H358; first compound 0.006325 µM
  relative viability: 0.135
NCI-H358; first compound 0.02 µM
  relative viability: 0.116
NCI-H596; first compound 0.0002 µM
  relative viability: 1.02
NCI-H596; first compound 0.000632 µM
  relative viability: 1.01
NCI-H596; first compound 0.002 µM
  relative viability: 1.02
NCI-H596; first compound 0.006325 µM
  relative viability: 0.639
NCI-H596; first compound 0.02 µM
  relative viability: 0.372
NCI-H650; first compound 0.0002 µM
  relative viability: 0.299
NCI-H650; first compound 0.000632 µM
  relative viability: 0.307
NCI-H650; first compound 0.002 µM
  relative viability: 0.274
NCI-H650; first compound 0.006325 µM
  relative viability: 0.278
NCI-H650; first compound 0.02 µM
  relative viability: 0.127
NCI-H661; first compound 0.0002 µM
  relative viability: 0.519
NCI-H661; first compound 0.000632 µM
  relative viability: 0.575
NCI-H661; first compound 0.002 µM
  relative viability: 0.606
NCI-H661; first compound 0.006325 µM
  relative viability: 0.358
NCI-H661; first compound 0.02 µM
  relative viability: 0.343
NCI-H838; first compound 0.0002 µM
  relative viability: 0.446
NCI-H838; first compound 0.000632 µM
  relative viability: 0.496
NCI-H838; first compound 0.002 µM
  relative viability: 0.276
NCI-H838; first compound 0.006325 µM
  relative viability: 0.181
NCI-H838; first compound 0.02 µM
  relative viability: 0.159
PC-3 [JPC-3]; first compound 0.0002 µM
  relative viability: 0.816
PC-3 [JPC-3]; first compound 0.000632 µM
  relative viability: 0.849
PC-3 [JPC-3]; first compound 0.002 µM
  relative viability: 0.666
PC-3 [JPC-3]; first compound 0.006325 µM
  relative viability: 0.5
PC-3 [JPC-3]; first compound 0.02 µM
  relative viability: 0.294
SK-MES-1; first compound 0.0002 µM
  relative viability: 0.375
SK-MES-1; first compound 0.000632 µM
  relative viability: 0.381
SK-MES-1; first compound 0.002 µM
  relative viability: 0.347
SK-MES-1; first compound 0.02 µM
  relative viability: 0.164
